Values of other authors, collected in article PMC5895059, “Scaffold hopping from (5-hydroxymethyl) isophthalates to multisubstituted pyrimidines diminishes binding affinity to the C1 domain of protein kinase C” (PLoS ONE, 2018).

Experiments:
[1] = molecular target: PKCα and -δ; parameters: method as in PMID 19438240; conditions: for PKCα and -δ; cited from earlier work
[2] = molecular target: PKCα (Homo sapiens, UniProt P17252); conditions: read-out: Ki PKCα; cited from earlier work

| Compound | Ki [1] | Ki [2] |
| --- | --- | --- |
| CCCCC(CC)OC(=O)c1cc(CO)cc(C(=O)OC(CC)CCCC)c1 (stereo not drawn) [HMI-1b11] | 205 to 915 nM | – |
| C/C=C(/C)C(=O)O[C@H]1C(C)=C[C@]23C(=O)[C@H](C=C(CO)[C@@H](O)[C@]12O)[C@H]1[C@@H](C[C@H]3C)C1(C)C [Ingenol 3-angelate, ingenol 3-angelate] | – | 0.1 nM |
| CC(=O)O[C@@]12[C@H](O)[C@@H](C)[C@@]3(O)[C@@H](C=C(CO)C[C@]4(O)C(=O)C(C)=C[C@@H]34)[C@@H]1C2(C)C [Phorbol 13-acetate, phorbol 13-acetate] | – | 120000 nM |
